A word on the pIC50: it is the negative decadic logarithm of the IC50, by convention in mol/L.

From ChEMBL document CHEMBL1909046, “DrugMatrix in vitro pharmacology data” come the findings set out here.

pIC50: −log10 of the molar value.

Series [1] can be described thus: DRUGMATRIX: Potassium Channel [KATP] radioligand binding (ligand: [3H] Glyburide). The format is cell membranes, Membrane. The settings on record: hit-t15; Not Active = under 50% inhibition at 10 µM.
Series [2] deals with C-C chemokine receptor type 2 (Homo sapiens, UniProt P41597). It is filed as cell membranes, Membrane. The settings on record: cho-k1.
C-C chemokine receptor type 2, sequence (P41597 whole entry): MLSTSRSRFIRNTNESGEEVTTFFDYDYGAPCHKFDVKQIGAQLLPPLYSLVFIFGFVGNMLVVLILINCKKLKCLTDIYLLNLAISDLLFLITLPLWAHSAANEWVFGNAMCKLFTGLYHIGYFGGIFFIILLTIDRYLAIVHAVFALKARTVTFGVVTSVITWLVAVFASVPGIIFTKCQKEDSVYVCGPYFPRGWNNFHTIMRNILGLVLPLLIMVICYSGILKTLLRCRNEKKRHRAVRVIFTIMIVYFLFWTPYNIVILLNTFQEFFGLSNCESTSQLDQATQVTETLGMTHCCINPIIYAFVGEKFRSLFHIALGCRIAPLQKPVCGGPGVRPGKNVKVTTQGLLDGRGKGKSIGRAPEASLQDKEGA
Another series deals with T1, D(4) dopamine receptor (Homo sapiens, UniProt P21917).
T1 sequence (P21917 whole entry): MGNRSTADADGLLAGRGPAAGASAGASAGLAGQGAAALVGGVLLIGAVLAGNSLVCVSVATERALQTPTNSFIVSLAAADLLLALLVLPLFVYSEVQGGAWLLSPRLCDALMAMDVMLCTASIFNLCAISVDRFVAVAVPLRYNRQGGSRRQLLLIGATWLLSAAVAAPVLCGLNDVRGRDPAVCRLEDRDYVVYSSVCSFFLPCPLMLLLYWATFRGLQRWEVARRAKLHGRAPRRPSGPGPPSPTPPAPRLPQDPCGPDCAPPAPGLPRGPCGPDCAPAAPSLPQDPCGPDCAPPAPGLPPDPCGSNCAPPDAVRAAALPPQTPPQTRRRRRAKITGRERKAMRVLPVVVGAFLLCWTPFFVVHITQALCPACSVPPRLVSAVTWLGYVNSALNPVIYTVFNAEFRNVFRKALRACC
The series is described as follows: DRUGMATRIX: Dopamine D4.2 radioligand binding (ligand: [3H] Spiperone). It is filed as cell membranes, CHO-K1, Membrane. The note with it: cho-k1; Not Active = under 50% inhibition at 10 µM.

Series [3] can be described thus: DRUGMATRIX: Phosphodiesterase PDE4 enzyme inhibition (substrate: [3H]cAMP + cAMP). The settings on record: u-937; Not Active = under 50% inhibition at 10 µM.
Another series addresses T2, Cytochrome P450 1A2 (Homo sapiens, UniProt P05177).
T2 sequence (P05177 whole entry): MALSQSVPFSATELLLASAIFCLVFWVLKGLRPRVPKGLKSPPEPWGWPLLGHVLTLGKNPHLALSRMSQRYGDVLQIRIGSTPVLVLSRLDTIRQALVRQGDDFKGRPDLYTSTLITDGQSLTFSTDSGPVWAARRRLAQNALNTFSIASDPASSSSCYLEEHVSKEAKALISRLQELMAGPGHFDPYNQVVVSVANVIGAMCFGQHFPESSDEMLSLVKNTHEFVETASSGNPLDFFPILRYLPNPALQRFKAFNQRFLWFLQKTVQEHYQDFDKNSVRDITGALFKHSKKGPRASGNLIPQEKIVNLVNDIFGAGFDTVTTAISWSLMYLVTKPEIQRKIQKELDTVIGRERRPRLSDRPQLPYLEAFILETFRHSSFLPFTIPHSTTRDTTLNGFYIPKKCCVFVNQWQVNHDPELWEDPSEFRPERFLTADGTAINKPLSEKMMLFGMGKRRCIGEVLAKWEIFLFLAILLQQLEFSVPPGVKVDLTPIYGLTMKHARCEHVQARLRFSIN
The note with it: bti-tn-5b1-4.

Series [4] in a line: DRUGMATRIX: Phorbol Ester radioligand binding (ligand: [3H] PDBu). The format is cell membranes, Mus musculus, ICR, Brain, Membrane. The settings on record: Not Active = under 50% inhibition at 10 µM.
For series [5], the target named is Prostaglandin G/H synthase 1 (Homo sapiens, UniProt P23219). The series is described as follows: biochemical. The format is tissue-based, Platelet. The settings on record: for IC50: platelet.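 For all read-outs here: inhibition of COX-1 enzyme activity, with arachidonic acid supplied as substrate; in other assays of this panel Not Active means under 50% inhibition at 10 µM.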
Prostaglandin G/H synthase 1, sequence (P23219 whole entry): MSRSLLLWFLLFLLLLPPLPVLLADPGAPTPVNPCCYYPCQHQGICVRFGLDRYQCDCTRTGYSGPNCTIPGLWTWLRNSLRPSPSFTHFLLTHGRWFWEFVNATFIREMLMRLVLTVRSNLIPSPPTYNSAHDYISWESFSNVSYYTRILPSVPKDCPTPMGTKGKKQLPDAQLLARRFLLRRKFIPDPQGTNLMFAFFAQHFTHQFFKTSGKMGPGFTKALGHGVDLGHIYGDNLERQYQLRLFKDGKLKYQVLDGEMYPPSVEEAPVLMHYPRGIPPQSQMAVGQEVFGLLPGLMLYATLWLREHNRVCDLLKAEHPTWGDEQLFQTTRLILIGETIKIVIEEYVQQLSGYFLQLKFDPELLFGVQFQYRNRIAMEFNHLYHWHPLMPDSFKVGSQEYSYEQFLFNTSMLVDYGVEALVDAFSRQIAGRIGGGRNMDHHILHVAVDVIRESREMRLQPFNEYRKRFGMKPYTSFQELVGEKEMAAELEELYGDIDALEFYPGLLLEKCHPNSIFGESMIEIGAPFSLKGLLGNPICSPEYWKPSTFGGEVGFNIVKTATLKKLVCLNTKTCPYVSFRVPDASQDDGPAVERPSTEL

With `O=C(O)CCCc1cccs1`, the IC50 result (in series [1]; in series [2]; at D(4) dopamine receptor; in series [3]; on Cytochrome P450 1A2; in series [4]) was “Not Active” in each case. The IC50 entry in series [5] was “Not Active”. In addition, the Ki result (in series [1]; in series [3]; on Cytochrome P450 1A2; in series [4]) was “Not Active” each time.

Consider `COc1ccccc1N`, for which the IC50 entry (in series [1]; in series [2]; at D(4) dopamine receptor; in series [3]; on Cytochrome P450 1A2; in series [4]) was “Not Active” each time. For the same molecule, the Ki entry (in series [1]; in series [3]; at Cytochrome P450 1A2; in series [4]) was “Not Active” in each case. Besides, the pIC50 in series [5] (read-out: IC50) is 5.50.

Consider `O=C(c1ccccc1F)N1CCC(Cc2ccccc2)CC1`, for which the IC50 result (in series [1]; in series [2]; at D(4) dopamine receptor; in series [3]; against Cytochrome P450 1A2; in series [4]) was “Not Active” in each case. Besides, the IC50 result in series [5] is “Not Active”. Besides, the Ki entry (in series [1]; in series [3]; at Cytochrome P450 1A2; in series [4]) was “Not Active” in each case.

Turning to `CCn1cc(C(=O)O)c(=O)c2cc(F)c(N3CCNC(C)C3)c(F)c21` (stereo not drawn) [LOMEFLOXACIN], the IC50 result (in series [2]; at D(4) dopamine receptor; in series [3]; at Cytochrome P450 1A2; in series [4]; in series [5]) was “Not Active” in each case. The Ki result (in series [3]; at Cytochrome P450 1A2; in series [4]) was “Not Active” in each case.

Turning to `CN(C)C(=N)NC(=N)N` [METFORMIN], the IC50 result (in series [1]; in series [2]; at D(4) dopamine receptor; in series [3]; in series [4]; in series [5]) was “Not Active” throughout. The Ki entry in series [1], in series [3] and in series [4] was “Not Active” throughout.

As to `CC(C)(C)NCC(O)COc1cccc2c1CC(O)C(O)C2` (stereo not drawn) [NADOLOL], the IC50 entry (in series [1]; in series [2]; on D(4) dopamine receptor; in series [3]; in series [4]; in series [5]) was “Not Active” throughout. The Ki result in series [1], in series [3] and in series [4] was “Not Active” in each case.

Regarding `C[C@@H]1C/C=C/C=C/C=C/C=C/[C@H](O[C@@H]2O[C@H](C)[C@@H](O)[C@H](N)[C@@H]2O)C[C@@H]2O[C@](O)(C[C@@H](O)C[C@H]3O[C@@H]3/C=C/C(=O)O1)C[C@H](O)[C@H]2C(=O)O` [NATAMYCIN], the IC50 entry (in series [1]; in series [2]; on D(4) dopamine receptor; in series [3]; in series [4]; in series [5]) was “Not Active” each time. Also, the Ki entry in series [1], in series [3] and in series [4] was “Not Active” each time.

As for `C[C@@H]1O[C@@H](O[C@H]2C[C@@H](O)[C@]3(CO)[C@H]4[C@H](O)C[C@]5(C)[C@@H](C6=CC(=O)OC6)CC[C@]5(O)[C@@H]4CC[C@]3(O)C2)[C@H](O)[C@H](O)[C@H]1O` [OUABAIN], the IC50 result (in series [1]; in series [2]; at D(4) dopamine receptor; in series [3]; in series [4]; in series [5]) was “Not Active” each time. Further, the Ki entry in series [1], in series [3] and in series [4] was “Not Active” throughout.
